System: carrageenan-induced hind paw edema
Experiment: carrageenan-induced hind paw edema (anti-inflammatory effect in vivo)
Set-up: species or system Wistar rats
Conditions: for time up to which the anti-inflammatory effect increased: after oral administration, diclofenac 4 mg/kg, Zn(II) complex 10 mg/kg, measured at 1-6 hours; for percent inhibition of inflammation (paw edema) vs control group: male Wistar rats, half an hour before carrageenan; for anti-inflammatory effect in vivo (in words): Wistar rats, 10 mg/kg
Experimental: The crystalline zinc complex was evaluated for anti-inflammatory effects in vivo in Wistar rats, compared to the known NSAID diclofenac as a standard treatment.
Eighteen male Wistar rats (weighing from 200-250 g) were obtained from the “Animal Care and Use Center of College of Pharmacy at King Saud University, Riyadh, Saudi Arabia”. Institutional guidelines were followed for these studies. All rats were provided standard laboratory conditions of “temperature and relative humidity. The rats were kept in plastic cages and given free access to standard laboratory pellet diet and water ad libitum.
The anti-inflammatory studies were performed by the standard carrageenan-induced hind paw edema method of inducing acute swelling, known in the industry and widely reported in the literature. The rats were randomly divided into 3 groups of 6 rats. Group I rats were given carrageenan only, and served as control group. Group II and III rats were given standard diclofenac and the studied Zn(II) complex, respectively.
The standard diclofenac (4 mg/kg) and the Zn(II) complex (10 mg/kg) were administered orally half an hour before sub plantar injection of carrageenan in the right paw. Paw edema was induced by injecting 0.1 ml of a 1% w/v suspension of carrageenan in purified water. The initial and final paw volume of each rat was measured at regular interval of time (1, 2, 3, 4, 5 and 6 hours) after injection, using a digital Plethysmometer (Ugo Basile, Italy). The percent inhibition of edema produced by the diclofenac- and zinc(II) complex-treated groups was determined with respect to the control group, using the standard formula used with this type of test, as known in the industry and reported in the literature. The inhibition of inflammation was analyzed statistically by applying a student t-test, using the MS Excel 2010 spreadsheet program. A P value <0.05 was considered statistically significant.

Molecule	time up to which the anti-inflammatory effect increased	percent inhibition of inflammation (paw edema) vs control group (4 mg/kg oral, 5 hours past oral administration) [%]	anti-inflammatory effect in vivo (in words) (10 mg/kg oral)	anti-inflammatory effect in vivo (in words) (10 mg/kg oral, listed as zinc complex)	percent inhibition of inflammation (paw edema) vs control group (10 mg/kg oral, 6 hours post oral administration) [%]
O=C(O)Cc1ccccc1Nc1c(Cl)cccc1Cl [diclofenac, reference compound]	about 5 hours	82.31	–	–	–
bis(chloro)-(N,N′-(2,2-dimethylpropane-1,3-diyl)bis(1-(2-chlorophenyl)methanimine))-zinc(II) complex [Zn(II) complex]	about 6 hours	–	good anti-inflammatory effect	good degree of anti-inflammatory activity	56.39

Reference: patent US10144748B1, “Anti-inflammatory zinc(II) complex” (KING SAUD UNIVERSITY, priority 2018, dated 2018)
